Assay results published in patent US20250145587A1, “BROMODOMAIN INHIBITORS” (AbbVie Inc., priority 2016, published 2025).

Molecular target: BRD4 (BDI_K57-E168) (Homo sapiens, UniProt O60885)
Assay: TR-FRET bromodomain binding assay, BRD4 first bromodomain (BDI)
Protocol: A time-resolved fluorescence resonance energy transfer (TR-FRET) assay was used to determine the affinities of compounds of the Examples listed in Table 1 for each bromodomain of BRD4. […] An Alexa647-labeled BET-inhibitor was used as the fluorescent probe in the assay.
(§1) Compound dilution series were prepared in DMSO via an approximately 3-fold serial dilution. Compound dilutions were added directly into white, low-volume assay plates (Perkin Elmer Proxiplate 384 Plus #6008280) using a Labcyte Echo in conjunction with Labcyte Access and Thermo Multidrop CombinL robotics. Compounds were then suspended in eight microliters (μL) of assay buffer (20 mM Sodium Phosphate, pH 6.0, 50 mM NaCl, 1 mM Ethylenediaminetetraacetic acid disodium salt dihydrate, 0.01% Triton X-100, 1 mM DL-Dithiothreitol) containing His-tagged bromodomain, Europium-conjugated anti-His antibody (Invitrogen PV5596) and Alexa-647-conjugated probe.
After a one-hour equilibration at room temperature, TR-FRET ratios were determined using an Envision multilabel plate reader (Ex 340, Em 495/520).
TR-FRET data were normalized to the means of 24 no-compound controls (“high”) and 8 controls containing 1 μM un-labeled probe (“low”). Percent inhibition was plotted as a function of compound concentration and the data were fit with the 4 parameter logistic equation to obtain IC50s. Inhibition constants (Ki) were calculated from the IC50s, probe Kd and probe concentration.
Compound dilution series for Compounds A-E were prepared in DMSO via an approximately 3-fold serial dilution from 0.47 mM to 7.8 nM.
as §1, with “Compound” for “Compound dilution series were prepared in DMSO via an approximately 3-fold serial dilution. Compound”
The final concentration of 1× assay mixture contained 2% DMSO, 8 nM His-tagged bromodomain, 1 nM Europium-conjugated anti-His-tag antibody and 100 nM or 30 nM probe (for BDI or BDII, respectively) and compound concentration in the range of […]-150 μM.
TR-FRET data were normalized to the means of 24 no-compound controls (“high”) and 8 controls containing 1 μM un-labeled probe (“low”). Percent inhibition was plotted as a function of compound concentration and the data were fit with the 4 parameter logistic equation to obtain IC50s. Inhibition constants (Ki) were calculated from the IC50s, probe Kd and probe concentration. Typical Z′ values were between 0.65 and 0.75. The minimum significant ratio was determined to evaluate assay reproducibility (Eastwood et al., (2006) J Biomol Screen, 11: 253-261). The MSR was determined to be 2.03 for BDI and 1.93 for BDII, and a moving MSR (last six run MSR overtime) for both BDI and BDII was typically <3.

| SMILES | Ki [nM] |
| --- | --- |
| CCS(=O)(=O)c1ccc(Oc2c(C)cc(F)cc2C)c(-c2cn(C)c(=O)cc2O[C@H]2CC[C@H](N3CCCC3=O)CC2)c1 [Example 19, 5-[5-(ethanesulfonyl)-2-(4-fluoro-2,6-dimethylphenoxy)phenyl]-1-methyl-4-{[trans-4-(2-oxopyrrolidin-1-yl)cyclohexyl]oxy}pyridin-2(1H)-one] | 615 |
| CCS(=O)(=O)c1ccc(Oc2c(C)cccc2C)c(-c2cn(C)c(=O)cc2O[C@H]2CC[C@H](NC(=O)OC(C)(C)C)CC2)c1 [Example 5, tert-butyl [trans-4-({5-[2-(2,6-dimethylphenoxy)-5-(ethanesulfonyl)phenyl]-1-methyl-2-oxo-1,2-dihydropyridin-4-yl}oxy)cyclohexyl]carbamate] | 1280 |
| CCS(=O)(=O)c1ccc(Oc2c(C)cccc2C)c(-c2cn(C)c(=O)cc2O[C@H]2CC[C@H](NC(=O)C3CC(F)(F)C3)CC2)c1 [Example 13, N-[trans-4-({5-[2-(2,6-dimethylphenoxy)-5-(ethanesulfonyl)phenyl]-1-methyl-2-oxo-1,2-dihydropyridin-4-yl}oxy)cyclohexyl]-3,3-difluorocyclobutane-1-carboxamide] | 462 |
| CCS(=O)(=O)c1ccc(Oc2c(C)cccc2C)c(-c2cn(C)c(=O)cc2O[C@H]2CC[C@H](NC(C)=O)CC2)c1 [Example 1, N-[trans-4-({5-[2-(2,6-dimethylphenoxy)-5-(ethanesulfonyl)phenyl]-1-methyl-2-oxo-1,2-dihydropyridin-4-yl}oxy)cyclohexyl]acetamide] | 1160 |
| CCS(=O)(=O)c1ccc(Oc2c(C)cc(F)cc2C)c(-c2cn(C)c(=O)cc2O[C@H]2CC[C@H](N(C)C(C)=O)CC2)c1 [Example 20, N-[trans-4-({5-[5-(ethanesulfonyl)-2-(4-fluoro-2,6-dimethylphenoxy)phenyl]-1-methyl-2-oxo-1,2-dihydropyridin-4-yl}oxy)cyclohexyl]-N-methylacetamide] | 461 |
| CCS(=O)(=O)c1ccc(Oc2c(C)cccc2C)c(-c2cn(C)c(=O)cc2O[C@H]2CC[C@H](NC(=O)C3CC3)CC2)c1 [Example 11, N-[trans-4-({5-[2-(2,6-dimethylphenoxy)-5-(ethanesulfonyl)phenyl]-1-methyl-2-oxo-1,2-dihydropyridin-4-yl}oxy)cyclohexyl]cyclopropanecarboxamide] | 773 |
| CCS(=O)(=O)c1ccc(Oc2c(C)cccc2C)c(-c2cn(C)c(=O)cc2O[C@H]2CC[C@H](NC(=O)C(C)(C)C)CC2)c1 [Example 8, N-[trans-4-({5-[2-(2,6-dimethylphenoxy)-5-(ethanesulfonyl)phenyl]-1-methyl-2-oxo-1,2-dihydropyridin-4-yl}oxy)cyclohexyl]-2,2-dimethylpropanamide] | 627 |
| CCS(=O)(=O)c1ccc(Oc2c(C)cccc2C)c(-c2cn(C)c(=O)cc2O[C@H]2CC[C@H](NC(=O)C(F)(F)F)CC2)c1 [Example 6, N-[trans-4-({5-[2-(2,6-dimethylphenoxy)-5-(ethanesulfonyl)phenyl]-1-methyl-2-oxo-1,2-dihydropyridin-4-yl}oxy)cyclohexyl]-2,2,2-trifluoroacetamide] | 823 |
| CCS(=O)(=O)c1ccc(Oc2c(C)cccc2C)c(-c2cn(C)c(=O)cc2O[C@H]2CC[C@H](NC(=O)C3(C)COC3)CC2)c1 [Example 12, N-[trans-4-({5-[2-(2,6-dimethylphenoxy)-5-(ethanesulfonyl)phenyl]-1-methyl-2-oxo-1,2-dihydropyridin-4-yl}oxy)cyclohexyl]-3-methyloxetane-3-carboxamide] | 301 |
| CCS(=O)(=O)Nc1ccc(Oc2c(C)cc(F)cc2C)c(-c2cn(C)c(=O)cc2O[C@H]2CC[C@H](NC(=O)OC)CC2)c1 [Example 16, methyl {trans-4-[(5-{5-[(ethanesulfonyl)amino]-2-(4-fluoro-2,6-dimethylphenoxy)phenyl}-1-methyl-2-oxo-1,2-dihydropyridin-4-yl)oxy]cyclohexyl}carbamate] | 313 |
| CCS(=O)(=O)Nc1ccc(Oc2c(C)cc(C(C)(C)O)cc2C)c(-c2cn(C)c(=O)cc2O[C@H]2CC[C@H](NC(=O)OC)CC2)c1 [Example 15, methyl {trans-4-[(5-{5-[(ethanesulfonyl)amino]-2-[4-(2-hydroxypropan-2-yl)-2,6-dimethylphenoxy]phenyl}-1-methyl-2-oxo-1,2-dihydropyridin-4-yl)oxy]cyclohexyl}carbamate] | 102 |
| CCS(=O)(=O)c1ccc(Oc2c(C)cccc2C)c(-c2cn(C)c(=O)cc2O[C@H]2CC[C@H](NS(C)(=O)=O)CC2)c1 [Example 4, N-[trans-4-({5-[2-(2,6-dimethylphenoxy)-5-(ethanesulfonyl)phenyl]-1-methyl-2-oxo-1,2-dihydropyridin-4-yl}oxy)cyclohexyl]methanesulfonamide] | 1050 |
| CCS(=O)(=O)c1ccc(Oc2c(C)cccc2C)c(-c2cn(C)c(=O)cc2O[C@H]2CC[C@H](NC(=O)OC)CC2)c1 [Example 3, methyl [trans-4-({5-[2-(2,6-dimethylphenoxy)-5-(ethanesulfonyl)phenyl]-1-methyl-2-oxo-1,2-dihydropyridin-4-yl}oxy)cyclohexyl]carbamate] | 1050 |
| CCS(=O)(=O)c1ccc(Oc2c(C)cccc2C)c(-c2cn(C)c(=O)cc2O[C@H]2CC[C@H](NC(=O)COC)CC2)c1 [Example 9, N-[trans-4-({5-[2-(2,6-dimethylphenoxy)-5-(ethanesulfonyl)phenyl]-1-methyl-2-oxo-1,2-dihydropyridin-4-yl}oxy)cyclohexyl]-2-methoxyacetamide] | 474 |
| CCS(=O)(=O)Nc1cnc(Oc2c(C)cc(F)cc2C)c(-c2cn(C)c(=O)cc2O[C@H]2CC[C@H](NC(=O)OC)CC2)c1 [Example 17, methyl [trans-4-({5′-[(ethanesulfonyl)amino]-2′-(4-fluoro-2,6-dimethylphenoxy)-1-methyl-6-oxo[1,6-dihydro[3,3′-bipyridine]]-4-yl}oxy)cyclohexyl]carbamate] | 419 |
| CCC(=O)N[C@H]1CC[C@H](Oc2cc(=O)n(C)cc2-c2cc(S(=O)(=O)CC)ccc2Oc2c(C)cccc2C)CC1 [Example 7, N-[trans-4-({5-[2-(2,6-dimethylphenoxy)-5-(ethanesulfonyl)phenyl]-1-methyl-2-oxo-1,2-dihydropyridin-4-yl}oxy)cyclohexyl]propanamide] | 489 |
| CCS(=O)(=O)c1ccc(Oc2c(C)cccc2C)c(-c2cn(C)c(=O)cc2O[C@H]2CC[C@H](NC(=O)C3(C)CC3)CC2)c1 [Example 10, N-[trans-4-({5-[2-(2,6-dimethylphenoxy)-5-(ethanesulfonyl)phenyl]-1-methyl-2-oxo-1,2-dihydropyridin-4-yl}oxy)cyclohexyl]-1-methylcyclopropane-1-carboxamide] | 524 |
| CCS(=O)(=O)c1ccc(Oc2c(C)cccc2C)c(-c2cn(C)c(=O)cc2O[C@H]2CC[C@@H](NC(C)=O)CC2)c1 [Example 2, N-[cis-4-({5-[2-(2,6-dimethylphenoxy)-5-(ethanesulfonyl)phenyl]-1-methyl-2-oxo-1,2-dihydropyridin-4-yl}oxy)cyclohexyl]acetamide] | 2800 |
| CCS(=O)(=O)Nc1ccc(Oc2c(C)cc(C(C)(C)O)cc2C)c(-c2cn(C)c(=O)cc2O[C@H]2CC[C@H](NC(C)=O)CC2)c1 [Example 14, N-{trans-4-[(5-{5-[(ethanesulfonyl)amino]-2-[4-(2-hydroxypropan-2-yl)-2,6-dimethylphenoxy]phenyl}-1-methyl-2-oxo-1,2-dihydropyridin-4-yl)oxy]cyclohexyl}acetamide] | 95.3 |
| COC(=O)N[C@H]1CC[C@H](Oc2cc(=O)n(C)cc2-c2cc(CS(C)(=O)=O)ccc2Oc2c(C)cc(F)cc2C)CC1 [Example 18, methyl {trans-4-[(5-{2-(4-fluoro-2,6-dimethylphenoxy)-5-[(methanesulfonyl)methyl]phenyl}-1-methyl-2-oxo-1,2-dihydropyridin-4-yl)oxy]cyclohexyl}carbamate] | 903 |
